Results reported in patent publication US10273243B2, “4-phenylpiperidines, their preparation and use” (The Trustees of Columbia University in the City of New York, priority 2013, dated 2019).

Tests used:
RBP4 = RBP4 (Homo sapiens, UniProt P02753); conditions: cited from earlier work
[1] = test system: retinal pigment epithelium cells; conditions: many cell types, including the retinal pigment epithelium cells; cited from earlier work
Abca4−/− mice = conditions: animal model of excessive bisretinoid accumulation; cited from earlier work
serum RBP4 and retinol = conditions: in vivo; cited from earlier work
RBP4-TTR interaction = conditions: cited from earlier work
[2] = cited from earlier work

| Compound | melting point | also measured |
| --- | --- | --- |
| CC(C)CC(=O)N1Cc2[nH]nc(C(=O)N3CCC(c4ccccc4C(F)(F)F)CC3)c2C1 [Example 55, 3-Methyl-1-(3-(4-(2-(trifluoromethyl)phenyl)piperidine-1-carbonyl)pyrrolo[3,4-c]pyrazol-5(1H,4H,6H)-yl)butan-1-one] | 200 to 203 °C |  |
| CC(C)(C)C(=O)N1Cc2[nH]nc(C(=O)N3CCC(c4ccccc4C(F)(F)F)CC3)c2C1 [Example 56, 2,2-Dimethyl-1-(3-(4-(2-(trifluoromethyl)phenyl)piperidine-1-carbonyl)pyrrolo[3,4-c]pyrazol-5(1H,4H,6H)-yl)propan-1-one] | 229 to 232 °C |  |
| Cc1cnc2cc(C(=O)N3CCC(c4ccccc4C(F)(F)F)CC3)[nH]c2c1 [Example 70, (6-Methyl-1H-pyrrolo[3,2-b]pyridin-2-yl)(4-(2-(trifluoromethyl)phenyl)piperidin-1-yl)methanone] | 254 to 258 °C |  |
| O=C(c1nc2ncccc2[nH]1)N1CCC(c2ccccc2C(F)(F)F)CC1 [Example 71, (1H-Imidazo[4,5-b]pyridin-2-yl)(4-(2-(trifluoromethyl)phenyl)piperidin-1-yl)methanone] | 249 to 251 °C |  |
| Cn1c(C(=O)N2CCC(c3ccccc3C(F)(F)F)CC2)cc2ncccc21 [Example 74, (1-Methyl-1H-pyrrolo[3,2-b]pyridin-2-yl)(4-(2-(trifluoromethyl)phenyl)piperidin-1-yl)methanone] | 159 to 163 °C |  |
| O=C(c1cc2ncc(-n3ccnc3)cc2[nH]1)N1CCC(c2ccccc2C(F)(F)F)CC1 [Example 75, (6-(1H-Imidazol-1-yl)-1H-pyrrolo[3,2-b]pyridin-2-yl)(4-(2-(trifluoromethyl)phenyl)piperidin-1-yl)methanone] | > 270 °C |  |
| O=C(c1cc2ncc(N3CCOCC3)cc2[nH]1)N1CCC(c2ccccc2C(F)(F)F)CC1 [Example 76, (6-Morpholino-1H-pyrrolo[3,2-b]pyridin-2-yl)(4-(2-(trifluoromethyl)phenyl)piperidin-1-yl)methanone] | 268 to 272 °C (dec.) |  |
| O=C(c1cc2ncc(Cl)cc2[nH]1)N1CCC(c2ccccc2C(F)(F)F)CC1 [Example 77, (6-Chloro-1H-pyrrolo[3,2-b]pyridin-2-yl)(4-(2-(trifluoromethyl)phenyl)piperidin-1-yl)methanone] | 258 to 261 °C |  |
| O=C(c1ccnnc1)N1CCC(c2ccccc2C(F)(F)F)CC1 [Example 80, Pyridazin-4-yl(4-(2-(trifluoromethyl)phenyl)piperidin-1-yl)methanone] | 159 to 162 °C |  |
| O=C(c1ccc2nccn2n1)N1CCC(c2ccccc2C(F)(F)F)CC1 [Example 81, Imidazo[1,2-b]pyridazin-6-yl(4-(2-(trifluoromethyl)phenyl)piperidin-1-yl)methanone] | 152 to 155 °C |  |
| O=C(c1cccnn1)N1CCC(c2ccccc2C(F)(F)F)CC1 [Example 82, Pyridazin-3-yl(4-(2-(trifluoromethyl)phenyl)piperidin-1-yl)methanone] | 125 to 127 °C |  |
| O=C(c1ccc(Cl)nn1)N1CCC(c2ccccc2C(F)(F)F)CC1 [Example 83, (6-Chloropyridazin-3-yl)(4-(2-(trifluoromethyl)phenyl)piperidin-1-yl)methanone] | 170 to 172 °C |  |
| Cc1nnsc1C(=O)N1CCC(c2ccccc2C(F)(F)F)CC1 [Example 84, (4-Methyl-1,2,3-thiadiazol-5-yl)(4-(2-(trifluoromethyl)phenyl)piperidin-1-yl)methanone] | 141 to 143 °C |  |
| Cc1ccc(C(=O)N2CCC(c3ccccc3C(F)(F)F)CC2)nn1 [Example 85, (6-Methylpyridazin-3-yl)(4-(2-(trifluoromethyl)phenyl)piperidin-1-yl)methanone] | 144 to 148 °C |  |
| COc1ccc(C(=O)N2CCC(c3ccccc3C(F)(F)F)CC2)nn1 [Example 86, (6-Methoxypyridazin-3-yl)(4-(2-(trifluoromethyl)phenyl)piperidin-1-yl)methanone] | 122 to 125 °C |  |
| O=C(c1cnccn1)N1CCC(c2ccccc2C(F)(F)F)CC1 [Example 87, Pyrazin-2-yl(4-(2-(trifluoromethyl)phenyl)piperidin-1-yl)methanone] | 109 to 111 °C |  |
| CC1=C(/C=C/C(C)=C/C=C/C(C)=C/C(=O)Nc2ccc(O)cc2)C(C)(C)CCC1 [fenretinide, N-(4-hydroxy-phenyl)retinamide] |  | binding to RBP4 (RBP4): bind to RBP4; displacement of all-trans retinol from RBP4 (RBP4): displace all-trans retinol from RBP4; induction of apoptosis [1]: extremely active inducer of apoptosis; A2E production (Abca4−/− mice): reduced A2E production; ocular all-trans retinol uptake (serum RBP4 and retinol): inhibit ocular all-trans retinol uptake; serum RBP4 and retinol (serum RBP4 and retinol): reduce serum RBP4 and retinol; visual cycle (serum RBP4 and retinol): slow down the visual cycle; disruption of RBP4-TTR interaction (RBP4-TTR interaction): disrupt the RBP4-TTR interaction; formation of hemangiosarcomas ([2]; mice): stimulate formation of hemangiosarcomas; selectivity and toxicity ([2]; mouse, in vivo): non-selective and toxic; teratogenicity ([2]; mouse, in vivo): teratogenic |

The next lines start with results.

| melting point | Compound | also measured |
| --- | --- | --- |
| 235 to 239 °C (dec.) | O=C(c1cnn[nH]1)N1CCC(c2ccccc2C(F)(F)F)CC1 [Example 88, (1H-1,2,3-Triazol-5-yl)(4-(2-(trifluoromethyl)phenyl)piperidin-1-yl)methanone] |  |
| 147 to 150 °C | Cc1nc2ccc(Cl)nn2c1C(=O)N1CCC(c2ccccc2C(F)(F)F)CC1 [Example 89, (6-Chloro-2-methylimidazol[1,2-b]pyridazin-3-yl)(4-(2-(trifluoromethyl)phenyl)piperidin-1-yl)methanone] |  |
| 167 to 170 °C | O=C(c1ccn[nH]1)N1CCC(c2ccccc2C(F)(F)F)CC1 [Example 90, (1H-pyrazol-5-yl)(4-(2-(trifluoromethyl)phenyl)piperidin-1-yl)methanone] |  |
| 188 to 190 °C | NC(=O)c1ccc(C(=O)N2CCC(c3ccccc3C(F)(F)F)CC2)cc1 [Example 92, 4-(4-(2-(Trifluoromethyl)phenyl)piperidine-1-carbonyl)benzamide] |  |
| 192 to 194 °C | NC(=O)c1cccc(C(=O)N2CCC(c3ccccc3C(F)(F)F)CC2)c1 [Example 93, 3-(4-(2-(Trifluoromethyl)phenyl)piperidine-1-carbonyl)benzamide] |  |
| 50 to 60 °C | CC(=O)N1CCCC1C(=O)N1CCC(c2ccccc2C(C)(C)C)CC1 (stereo not shown) [Example 97, 1-(2-(4-(2-(Tert-butyl)phenyl)piperidine-1-carbonyl)pyrrolidin-1-yl)ethanone] |  |
| 65 to 75 °C | CC(C)(C)c1ccccc1C1CCN(C(=O)[C@H]2C[C@@H](O)CN2)CC1 [Example 98, (4-(2-(Tert-butyl)phenyl)piperidin-1-yl)((2R,4R)-4-hydroxypyrrolidin-2-yl)methanone] |  |
| 80 to 84 °C | CC(C)(C)c1ccccc1C1CCN(C(=O)C2CCCS2(=O)=O)CC1 (stereo not shown) [Example 100, (4-(2-(tert-butyl)phenyl)piperidin-1-yl)(1,1-dioxidotetrahydrothiophen-2-yl)methanone] |  |
| 170 to 173 °C | NS(=O)(=O)Oc1ccccc1CC(=O)N1CCC(c2ccccc2C(F)(F)F)CC1 [Example 102, 2-(2-Oxo-2-(4-(2-(trifluoromethyl)phenyl)piperidin-1-yl)ethyl)phenylsulfamate] |  |
| 100 to 102 °C | CC1(C(=O)N2CCC(c3ccccc3C(F)(F)F)CC2)COC1 [Example 103, (3-Methyloxetan-3-yl)(4-(2-(trifluoromethyl)phenyl)piperidin-1-yl)methanone] |  |
